For one molecule, concentration results are on record in patent publication US20190365742A1, “AZOLE TREATMENT REGIMEN WITH REDUCED HEPATOTOXICITY” (HEDGEPATH PHARMACEUTICALS, INC., priority 2018, published 2019).

The series is described as follows: plasma concentration of itraconazole required for clinical benefit in humans with cancer. The format is in vivo. The note with it: human, after 4 weeks of therapy, read-out: minimum plasma trough level required to have a clinically significant effect. Here is the method: Optionally, the treatment method further comprises measuring the plasma level of the HhP inhibitor, or a metabolite thereof, in the subject one or more times. In some embodiments, the measuring is carried out one or more times about 4 weeks after initiation of treatment with the HhP inhibitor. Observations concerning the desirability of achieving a plasma trough level of at least about 1,000 ng/mL of the HhP inhibitor are described in U.S. Pat. No. 9,192,609 (“Treatment and Prognostic Monitoring of Proliferation Disorders Using Hedgehog Pathway Inhibitors”; Virca and O'Donnell), which is incorporated herein by reference in its entirety.
In particular, the minimum plasma trough level after 4 weeks of therapy required to have a clinically significant effect was at least 1000 ng/ml. […] Nevertheless, there can be side-effects peculiar to such high doses such as hypertension, peripheral edema, and hypokalemia, which seem to be a result of an increased production of mineralocorticoid. These side effects associated with these high doses of itraconazole can be effectively managed by giving a selective mineralocorticoid antagonist, such as eplerenone. Accordingly, in some embodiments, the method further comprises administering eplerenone or other mineralocorticoid inhibitor. […]

Take `CCC(C)n1ncn(-c2ccc(N3CCN(c4ccc(OCC5COC(Cn6cncn6)(c6ccc(Cl)cc6Cl)O5)cc4)CC3)cc2)c1=O` (stereo not shown) [itraconazole]: the concentration at 4 weeks is not below 1000 ng/mL.
